Measurements taken from patent publication EP0268178A1, “Pyrrolo-benzimidazoles, medicaments containing these compounds and process for their preparation” (Dr. Karl Thomae GmbH, priority 1986, dated 1988).

Tested on: narkotisierten Katze
Test: Blood-pressure-lowering and positive inotropic effect in the anaesthetised cat
Type: in vivo, Katzen
Conditions: mean of 2 cats; for diastol. Blutdruckänderung in mmHg: anaesthetised cats (Pentobarbital-Natrium), 0,3 mg/kg i.v., Aorta abdominalis; for Zunahme von dp/dt in %: dp/dt max from left ventricular pressure
Method: 1. Bestimmung der blutdrucksenkenden und ositiv inotropen Wirkung an der narkotisierten Katze:
Die Untersuchungen wurden an Katzen durchgeführt, die mit Pentobarbital-Natrium (40 mg/kg i.p. + 8 mg/kg/Stunde) narkotisiert waren. Die Tiere atmeten spontan. Der arterielle Blutdruck wurde in der Aorta abdominalis mit einem StathamDruckwandler (P 23 Dc) gemessen. Für die Erfassung der positiv inotropen Wirkung wurde mit einem Kathetertipmanometer (Millar PC-350 A) der Druck in der linken Herzkammer gemessen. Daraus wurde der Kontraktilitätsparameter dp/dt max mittels eines Analogdifferenzierers gewonnen. Die zu untersuchende Substanz wurde in eine Vena femoralis injiziert. Als Lösungsmittel diente Polydiol 200. Die Substanz wurde an 2 Katzen geprüft, Dosis 0,3 mg/kg i.v..

[1] = anaesthetised cats, 0,3 mg/kg i.v.

| SMILES | diastol. Blutdruckänderung in mmHg [mmHg] | Wirkungsdauer (Halbwertszeit) [1] [Minuten] | Zunahme von dp/dt in % [1] | Zunahme der Herzfrequenz [1] |
| --- | --- | --- | --- | --- |
| CCN1C(=O)C(C)(C)c2cc3[nH]c(-c4ccncc4)nc3cc21 [A, 5-Äthyl-7,7-dimethyl-2-(4-pyridyl)-6,7-dihyro-3H,5H-pyrrolo[2,3-f]benzimidazol-6-on] | -33 | >80 | +55% |  |
| CCN1C(=O)C(C)(C)c2cc3[nH]c(-c4ccco4)nc3cc21 [B, 5-Äthyl-7,7-dimethyl-2-(2-furyl)-6,7-dihydro-3H,5H-pyrrolo[2,3-f]benzimidazol-6-on] | -31 | 26 | +49% |  |
| CCN1C(=O)C(C)(C)c2cc3[nH]c(-c4ccc(S(C)(=O)=O)cc4)nc3cc21 [C, 5-Äthyl-7,7-dimethyl-2-(4-methylsulfonyl-phenyl)-6,7-dihydro-3H,5H-pyrrolo[2,3-f]benzimidazol-6-on] | -16 | >60 | +91% | +12% |
| CCN1C(=O)C(C)(C)c2cc3[nH]c(-c4ocnc4C)nc3cc21 [D, 5-Äthyl-7,7-dimethyl-2-(4-methyl-oxazol-5-yl)-6,7-dihydro-3H,5H-pyrrolo[2,3-f]benzimidazol-B-on] | -31 | 7 | +50% |  |
